These results are taken from article PMC10299909, “Structural basis of efficacy-driven ligand selectivity at GPCRs” (Nature Chemical Biology, 2023).

Usually pKi stands for −log10 of the Ki, conventionally taken in molar units.

Residue numbers refer to the chain shown, from its start. pKi: −log10 of the molar value. Several values for one entry are separate records, joined by “and”; a condition that tells them apart may be missing. Equal entries are not always repeated. Where two headings read alike, the source gives them in different places.

Assay [1] deals with T1, M3 mAChR (Homo sapiens, UniProt P20309).
T1 construct: expressed in transfected cells; host or cells: CHO FlpIn
The experiment in a line: whole-cell [3H]NMS radioligand competition binding, CHO FlpIn cells. The conditions noted are these: first set of experiments, read-out: pKI (radioligand binding competition with [3H]NMS) (converted). On the technique in general: Displacement assays read how much labelled ligand stays bound in the presence of the test substance.

Assay [2] has as its target T2, M4 mAChR (Homo sapiens, UniProt P08173).
T2 construct: expressed in transfected cells; host or cells: CHO FlpIn
T2 sequence (P08173 1-479): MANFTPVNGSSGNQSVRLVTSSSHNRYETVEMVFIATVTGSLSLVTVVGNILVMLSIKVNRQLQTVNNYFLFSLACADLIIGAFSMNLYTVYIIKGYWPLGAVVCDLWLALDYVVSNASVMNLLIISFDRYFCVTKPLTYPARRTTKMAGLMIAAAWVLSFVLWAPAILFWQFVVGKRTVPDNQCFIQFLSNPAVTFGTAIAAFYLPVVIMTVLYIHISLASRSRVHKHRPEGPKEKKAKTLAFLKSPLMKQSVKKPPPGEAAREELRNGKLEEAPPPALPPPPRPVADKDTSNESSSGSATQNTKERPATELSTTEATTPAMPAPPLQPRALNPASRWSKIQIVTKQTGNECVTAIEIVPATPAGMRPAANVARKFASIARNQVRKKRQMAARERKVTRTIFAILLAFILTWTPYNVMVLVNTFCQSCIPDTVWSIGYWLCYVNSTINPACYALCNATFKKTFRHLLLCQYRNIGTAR
The assay is described as above. The conditions noted are these: M4; first set of experiments (top 5 rows); read-out: pKI (radioligand binding competition with [3H]NMS) (converted).

The target of assay [3] is T3, M5 mAChR (Homo sapiens, UniProt P08912).
T3 construct: expressed in transfected cells; host or cells: CHO FlpIn
T3 sequence (P08912 1-532): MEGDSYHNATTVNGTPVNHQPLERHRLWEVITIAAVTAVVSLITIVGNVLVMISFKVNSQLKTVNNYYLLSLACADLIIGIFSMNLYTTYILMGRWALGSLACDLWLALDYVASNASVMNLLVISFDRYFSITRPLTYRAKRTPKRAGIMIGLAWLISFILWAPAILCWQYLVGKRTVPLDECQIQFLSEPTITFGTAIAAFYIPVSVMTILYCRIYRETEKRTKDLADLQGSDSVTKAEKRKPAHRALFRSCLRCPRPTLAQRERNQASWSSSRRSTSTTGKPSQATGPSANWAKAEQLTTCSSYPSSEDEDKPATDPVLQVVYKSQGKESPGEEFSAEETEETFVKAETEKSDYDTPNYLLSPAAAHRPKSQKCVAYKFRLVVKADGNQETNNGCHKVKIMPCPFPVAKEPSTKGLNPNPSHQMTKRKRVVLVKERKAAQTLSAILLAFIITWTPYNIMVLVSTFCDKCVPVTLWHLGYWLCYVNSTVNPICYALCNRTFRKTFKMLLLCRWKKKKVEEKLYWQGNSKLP
Described as above. The following applies: first set of experiments, read-out: pKI (radioligand binding competition with [3H]NMS) (converted).

The target of the next assay is M1 mAChR (Homo sapiens, UniProt P11229). As to the kind of experiment: cell-based.
Assay [4] addresses T4, M2 mAChR (Homo sapiens, UniProt P08172).
T4 sequence (P08172 1-466): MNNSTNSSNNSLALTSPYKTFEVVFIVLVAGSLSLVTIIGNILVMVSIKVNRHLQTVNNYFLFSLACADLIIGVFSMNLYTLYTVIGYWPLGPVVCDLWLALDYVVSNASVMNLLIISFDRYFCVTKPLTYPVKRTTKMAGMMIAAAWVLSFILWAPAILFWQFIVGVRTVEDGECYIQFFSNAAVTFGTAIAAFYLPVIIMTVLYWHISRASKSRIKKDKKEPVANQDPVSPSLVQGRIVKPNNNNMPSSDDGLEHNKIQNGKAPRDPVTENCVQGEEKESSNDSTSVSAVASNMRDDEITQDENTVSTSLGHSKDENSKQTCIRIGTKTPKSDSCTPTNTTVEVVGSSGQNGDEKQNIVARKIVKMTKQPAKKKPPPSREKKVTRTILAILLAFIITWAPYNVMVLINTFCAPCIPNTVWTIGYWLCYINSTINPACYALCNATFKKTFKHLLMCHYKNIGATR
The experiment in a line: cell-based.

The target in assay [5] is T1, M3 mAChR. The experiment in a line: pERK1/pERK2 signaling assay (AlphaScreen SureFire), CHO FlpIn cells. Type of assay: cell-based. The conditions noted are these: M3; first set of experiments. In general terms: In Alpha technology, singlet oxygen from a donor bead excites a nearby acceptor bead.
In assay [6] the target is T3, M5 mAChR. Described as above. The conditions noted are these: first set of experiments. It is filed as cell-based.
Assay [7] has as its target T5, M4 L190F mAChR (Homo sapiens, UniProt P08173, L190F).
T5 construct: expressed in transfected cells; host or cells: CHO FlpIn
T5 sequence (P08173 1-479 L190F): T2 sequence (P08173 1-479) with L190F
The description is as above. It is filed as cell-based.

In another assay the target is T6, M2 WT mAChR (Homo sapiens, UniProt P08172).
T6 construct: expressed in transfected cells; host or cells: CHO FlpIn
T6 sequence (P08172 1-466): T4 sequence (P08172 1-466)
The experiment in a line: BRET TRUPATH GoA activation (G-protein dissociation) assay. The conditions noted are these: M2 wt, T=6min, individual experiments, listed as Ach. Type of assay: cell-based. As for the experimental part: (§1) Cells were seeded at 20,000 cells per well into 96-well flat-bottom white culture plates and grown for 4 h. Plasmid DNA (20 ng per well of Gα, Gβ and Gγ at a 1:1:1 ratio) and linear polyethylenimine were added to the cells in a 1:6 ratio. To allow for protein expression, cells were then incubated (37 °C, 5% CO2) for 48 h before the measurement of agonist activity. […] The initial 4 min of measurement was considered baseline counts before ligand or vehicle addition, with BRET readings every 2 min for a further 8 min following drug or vehicle addition.
(§2) Concentration–response curves were fitted to a three-parameter logistic equation to derive ligand potency (pEC50) estimates.
(§3) Data was analyzed using the operational model of agonism to quantify the efficacy (Logτ) of each agonist in each cell line, and subsequently corrected for receptor expression level differences between cell lines (Logτc), using the M2 WT as reference. […] Source data
Background: In BRET a luciferase serves as donor, and the signal depends on an acceptor being close.

Assay [8] has as its target T5, M4 L190F mAChR. Described as above. It is filed as cell-based. The following applies: T=6min, listed as Ach. As for the experimental part: as §1, §2, §3
Another assay deals with T7, M4 WT mAChR (Homo sapiens, UniProt P08173).
T7 construct: expressed in transfected cells; host or cells: CHO FlpIn
T7 sequence (P08173 1-479): T2 sequence (P08173 1-479)
The assay is described as above. The conditions noted are these: T=6min, listed as Ach. It is filed as cell-based. As for the experimental part: as §1, §2, §3

The target of assay [9] is M4 mAChR (Homo sapiens, UniProt P08173). The experiment in a line: [3H]NMS competition binding, purified receptor in lipid nanodiscs with Gi1 heterotrimer.
The target of assay [10] is M2 mAChR (Homo sapiens, UniProt P08172).
Assay [11] deals with T4, M2 mAChR. As to the kind of experiment: pERK1/pERK2 signaling assay (AlphaScreen SureFire), CHO FlpIn cells. The following applies: Figure 5c, by tail length, best fit value from nonlinear regression on grouped data. It is filed as cell-based.
In assay [12] the target is T2, M4 mAChR. The assay is described as above. It is filed as cell-based. The following applies: Figure 5c, by tail length, best fit value from nonlinear regression on grouped data.
The mark [13] stands for this setting: Log[Ligand] (M) -4, individual experiments.
[14] abbreviates: Log[Ligand] (M) -9, individual experiments.
The mark [15] stands for this setting: Log[Ligand] (M) -10, individual experiments.
Setting [16] is: Log[Ligand] (M) -12, individual experiments.
Setting [17] is: Receptor : G protein Molar Ratio 1:0.

Turning to `CCCOc1nsnc1C1=CCCN(C)C1` [3-carbon tail analog of xanomeline], the Ki at M3 mAChR [1] was 34.7 nM; on M4 mAChR [2] it was 37.2 nM; on M5 mAChR [3] it was 49 nM. In addition, the figures for the pKi at M1 mAChR and on M2 mAChR [4] were 7.56 and 7.64, respectively.
With `CC(=O)OCC[N+](C)(C)C` [Acetylcholine, acetylcholine], the “Emax pERK1/2” value is 98 ± 5 % FBS stimulation on M3 mAChR [5], 90 ± 4 % FBS stimulation at M5 mAChR [6] and 94 ± 8 % FBS stimulation at M4 L190F mAChR [7]. In addition, the GoA activation response at M2 WT mAChR (Log[Ligand] (M) -4) was 103.24 % Emax ACh and 95.841 % Emax ACh and 98.7568 % Emax ACh and 99.8054 % Emax ACh and 99.3813 % Emax ACh; on M2 WT mAChR (Log[Ligand] (M) -8), 9.766 % Emax ACh; on M2 WT mAChR (Log[Ligand] (M) -9), 1.63 % Emax ACh and -3.189 % Emax ACh and -6.851 % Emax ACh and 0.4007 % Emax ACh and 0.416 % Emax ACh; at M2 WT mAChR (Log[Ligand] (M) -10) it was -3.058 % Emax ACh and 8.597 % Emax ACh and 0.3009 % Emax ACh and 1.683 % Emax ACh and 4.386 % Emax ACh; on M2 WT mAChR (Log[Ligand] (M) -12), 6.399 % Emax ACh and 0.8864 % Emax ACh and 8.076 % Emax ACh and 1.671 % Emax ACh and -0.9147 % Emax ACh; at M4 L190F mAChR [8] (setting [13]) it was 106.304 % Emax ACh and 103.075 % Emax ACh and 107.769 % Emax ACh and 104.574 % Emax ACh and 105.838 % Emax ACh. For the same molecule, the GoA activation response is 99.5547 % Emax ACh and 105.081 % Emax ACh and 94.0499 % Emax ACh and 100.086 % Emax ACh and 98.7018 % Emax ACh at M4 L190F mAChR [8] (Log[Ligand] (M) -5, individual experiments); 84.6502 % Emax ACh and 86.1198 % Emax ACh and 94.9784 % Emax ACh and 91.5878 % Emax ACh and 95.0975 % Emax ACh on M4 L190F mAChR [8] (Log[Ligand] (M) -6, individual experiments); 59.4174 % Emax ACh and 69.5753 % Emax ACh and 70.634 % Emax ACh and 76.3729 % Emax ACh and 78.8634 % Emax ACh on M4 L190F mAChR [8] (Log[Ligand] (M) -7, individual experiments); 12.4418 % Emax ACh and 20.3625 % Emax ACh and 19.5412 % Emax ACh and 25.1119 % Emax ACh and 33.5842 % Emax ACh at M4 L190F mAChR [8] (Log[Ligand] (M) -8, individual experiments); 1.269 % Emax ACh and 1.901 % Emax ACh and 28.8031 % Emax ACh and 3.9293 % Emax ACh and 7.995 % Emax ACh on M4 L190F mAChR [8] (setting [14]); -3.41 % Emax ACh and 9.605 % Emax ACh and 0.2419 % Emax ACh and -0.9 % Emax ACh and 0.4231 % Emax ACh on M4 L190F mAChR [8] (setting [15]). Further, the GoA activation response at M4 L190F mAChR [8] (setting [16]) was 2.811 % Emax ACh and -10.3446 % Emax ACh and -23.8686 % Emax ACh and 0.009116 % Emax ACh and -3.752 % Emax ACh; at M4 WT mAChR (setting [13]), 104.45 % Emax ACh and 102.662 % Emax ACh and 101.586 % Emax ACh and 101.003 % Emax ACh and 104.541 % Emax ACh; at M4 WT mAChR (setting [14]), 1.1727 % Emax ACh and 5.239 % Emax ACh and 5.623 % Emax ACh and -1.171 % Emax ACh and 2.894 % Emax ACh; on M4 WT mAChR (setting [15]), 3.695 % Emax ACh and 0.8905 % Emax ACh and -7.035 % Emax ACh and 0.4855 % Emax ACh and -3.187 % Emax ACh; on M4 WT mAChR (setting [16]) it was -21.8016 % Emax ACh and 1.058 % Emax ACh and -6.101 % Emax ACh and 1.717 % Emax ACh and -0.3266 % Emax ACh. Further, the “Fraction of receptors in a G protein-dependent high-affinity state” value at M4 mAChR [9] (setting [17]) came to 0.00 ± 0.04; at M4 mAChR [9] (Receptor : G protein Molar Ratio 1:125) it was 0.30 ± 0.04; at M4 mAChR [9] (Receptor : G protein Molar Ratio 1:500), 0.71 ± 0.03; on M2 mAChR [10] (setting [17]), 0.13 ± 0.10; on M2 mAChR [10] (Receptor : G protein Molar Ratio 1:50), 0.33 ± 0.10; on M2 mAChR [10] (Receptor : G protein Molar Ratio 1:1000), 0.57 ± 0.11. Further, at M2 mAChR [10] (Receptor : G protein Molar Ratio 1:2000), the “Fraction of receptors in a G protein-dependent high-affinity state” value is reported as 0.89 ± 0.12.
On to `CCCOc1nsnc1C1=CCCN(C)C1` [C3], for which the Fit parameter came out at 0.6149 at M2 mAChR [11] and 0.346 at M4 mAChR [12].
In the case of `CCCCOc1nsnc1C1=CCCN(C)C1` [C4], the Fit parameter on M2 mAChR [11] is recorded as 0.5922; on M4 mAChR [12] it was 0.4707.
